Measurements: publication PMC9519869, “Synthesis, biological evaluation, and molecular modeling studies of new benzoxazole derivatives as PARP-2 inhibitors targeting breast cancer” (Scientific Reports, 2022)

Assays:
[1] = tested on: MDA-MB-231; assay: In vitro cytotoxicity screening, MTT assay; details: Homo sapiens, MDA-MB-231, 24 h, read-out: In vitro Cytotoxicity (IC50, µM) MDA-MB-231
From the text: Two human breast cancer cell lines, namely, MDA-MB-231 and MCF-7 were obtained from American Type Culture Collection (ATCC) via a holding company for biological products and vaccines (VACSERA), Cairo, Egypt. […] The reagents used were RPMI-1640 medium, MTT, DMSO (sigma co., St. Louis, USA), and Fetal bovine serum (GIBCO, UK). […] MTT is a colorimetric assay based on the conversion of the yellow tetrazolium bromide (MTT) to a purple formazan derivative by mitochondrial succinate dehydrogenase in viable cells. Cell lines were cultured in RPMI-1640 medium with 10% foetal bovine serum. Antibiotics added were 100 units/ml penicillin and 100 µg/ml streptomycin maintained at 37 °C in a 5% CO2 incubator. The cell lines were seeded at a density of approximately 1.0 × 10 ^4 cells/well in a 96-well plate at 37 °C for 48 h under 5% CO2. Different concentrations of compounds were added and incubated for 24 h. After 24 h of drug treatment, 20 µl of MTT staining solution at 5 mg/ml was added to each well and incubated for 4 h at 37 °C. After 4 h, 100 µl of dimethyl sulfoxide (DMSO) were added into each well to dissolve the purple formazan crystals formed. The absorbance was recorded at 570 nm using a plate reader (EXL 800, USA). The relative cell viability in percentage was calculated as (A570 of treated samples/A570 of untreated sample) X 100 [22],[23].

[2] = target: T1, PARP-2 enzyme (Homo sapiens, UniProt Q9UGN5); assay: Poly (ADP-ribose) polymerase 2 (PARP-2) inhibition assay (colorimetric kit); type: biochemical; details: for IC50: in vitro enzyme assay
T1 construct: purchased BPS Bioscience 80,581
Procedure: Results were expressed as IC50 values (Table 2).
The PARP-2 inhibitory activity of the test compounds was assayed using PARP-2 Colorimetric Activity Assay Kit (BPS Bioscience, catalog 80,581, San Diego, CA, USA) following the manufacturer’s protocol. Briefly, histone protein mixture was coated on a 96-well microtiter plate and incubated at 4 °C overnight, washed with phosphate-buffered saline with tween-20 (PBST) three times then, the wells were blocked by adding blocking buffer 3 and incubated at room temperature for 60–90 min. After that, the plate was washed with PBST buffer three times. The master mixture which contains the PARP buffer, PARP assay mixture, activated DNA and distilled water was added to each well then, the inhibitor solution (test compound) was added. The reaction was initiated by adding PARP-2 enzyme to the wells and the plate was incubated for 1 h at room temperature. After 1 h, the reaction mixture was discarded, and the plate was washed with PBST buffer three times. Finally, the plate was treated with Streptavidin–Horseradish Peroxidase (HRP) and incubated for 30 min at room temperature and then washed with PBST buffer. The colorimetric HRP substrate was added to each well and incubated at room temperature until the positive control well developed blue color. Sulphuric acid was added to each well after the blue color development. The absorbance was read at 450 nm using UV/Vis spectrophotometer microplate reader.
Suppl. S2. In vitro PARP-2 enzyme inhibition assay
Researcher : Dr. Nadeen Ghobashy email:elghobashynadeen@gmail.com mob.01008873340
Reader : ROBONIK P2000 Eliza Reader wl 450 nm

T1 sequence (Q9UGN5 whole entry): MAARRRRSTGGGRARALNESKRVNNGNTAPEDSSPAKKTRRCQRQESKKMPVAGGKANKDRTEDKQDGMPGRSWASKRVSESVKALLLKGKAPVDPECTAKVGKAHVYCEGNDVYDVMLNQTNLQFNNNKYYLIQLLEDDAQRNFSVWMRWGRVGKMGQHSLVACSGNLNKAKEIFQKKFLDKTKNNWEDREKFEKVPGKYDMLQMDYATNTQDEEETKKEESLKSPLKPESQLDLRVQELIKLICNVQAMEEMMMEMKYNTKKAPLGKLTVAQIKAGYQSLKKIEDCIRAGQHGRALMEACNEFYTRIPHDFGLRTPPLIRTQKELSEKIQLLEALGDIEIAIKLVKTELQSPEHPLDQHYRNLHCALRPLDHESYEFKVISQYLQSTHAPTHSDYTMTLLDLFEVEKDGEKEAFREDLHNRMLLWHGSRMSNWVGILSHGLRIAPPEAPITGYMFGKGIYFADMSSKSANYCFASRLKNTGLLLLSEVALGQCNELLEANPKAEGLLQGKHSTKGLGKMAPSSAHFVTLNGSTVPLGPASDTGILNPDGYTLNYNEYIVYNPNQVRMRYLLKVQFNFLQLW

SMILES	melting point	IC50 [1]	%inh of PARP-2 (Table S2 raw data) ([2]; conc 0.01 (ng/ml))	%inh of PARP-2 (Table S2 raw data) ([2]; conc 0.1 (ng/ml))	%inh of PARP-2 (Table S2 raw data) ([2]; conc 1 (ng/ml))	%inh of PARP-2 (Table S2 raw data) ([2]; conc 10 (ng/ml))	IC50 [2]
O=C(CN1CCN(c2ccccc2)CC1)Nc1ccc(-c2nc3cc(Cl)ccc3o2)cc1 [Compound 16, N-(4-(5-chlorobenzoxazol-2-yl)phenyl)-2-(4-phenylpiperazin-1-yl)acetamide]	231 to 233 °C	78.8 ± 3.8 µM					
O=C(CCNCCCc1ccccc1)Nc1ccc(-c2nc3cc(Cl)ccc3o2)cc1 [Compound 25, N-(4-(5-chlorobenzoxazol-2-yl)phenyl)-3-((3-phenylpropyl)amino)propanamide]	87 to 89 °C	15.6 ± 1.2 µM	36.11%	47.92%	73.45%	88.59%	0.074 ± 0.004 µM
COc1ccccc1N1CCN(CCC(=O)Nc2ccc(-c3nc4cc(Cl)ccc4o3)cc2)CC1 [Compound 19, N-(4-(5-chlorobenzoxazol-2-yl)phenyl)-3-(4-(2-methoxyphenyl)piperazin-1-yl)propanamide]	211 to 213 °C	22.5 ± 1.9 µM					
Nc1ccc(-c2nc3cc(Cl)ccc3o2)cc1 [Compound 3, 4-(5-chlorobenzoxazol-2-yl)aniline]		24 ± 1.8 µM					
CC(=O)c1nnn(-c2ccc(-c3nc4cc(Cl)ccc4o3)cc2)c1C [Compound 30, 1-(1-(4-(5-chlorobenzoxazol-2-yl)phenyl)-5-methyl-1H-1,2,3-triazol-4-yl)ethan-1-one]	212 to 214 °C	73.9 ± 3.6 µM					
O=C(CNCCc1ccccc1)Nc1ccc(-c2nc3cc(Cl)ccc3o2)cc1 [Compound 21, N-(4-(5-chlorobenzoxazol-2-yl)phenyl)-2-(phenethylamino)acetamide]	129 to 131 °C	12.2 ± 1 µM	20.88%	36.15%	52.41%	81.94%	0.406 ± 0.022 µM
O=C(CNCCCc1ccccc1)Nc1ccc(-c2nc3cc(Cl)ccc3o2)cc1 [Compound 22, N-(4-(5-chlorobenzoxazol-2-yl)phenyl)-2-((3-phenylpropyl)amino)acetamide]	93 to 95 °C	17.4 ± 1.4 µM	27.08%	33.43%	58.97%	86.49%	0.267 ± 0.015 µM
CCN1CCN(CC(=O)Nc2ccc(-c3nc4cc(Cl)ccc4o3)cc2)CC1 [Compound 9, N-(4-(5-chlorobenzoxazol-2-yl)phenyl)-2-(4-ethylpiperazin-1-yl)acetamide]	153 to 155 °C	39.5 ± 2.6 µM					
O=C(CN1CCOCC1)Nc1ccc(-c2nc3cc(Cl)ccc3o2)cc1 [Compound 7, N-(4-(5-chlorobenzoxazol-2-yl)phenyl)-2-morpholinoacetamide]	178 to 180 °C	51.6 ± 3 µM					
CCN1CCN(CCC(=O)Nc2ccc(-c3nc4cc(Cl)ccc4o3)cc2)CC1 [Compound 14, N-(4-(5-chlorobenzoxazol-2-yl)phenyl)-3-(4-ethylpiperazin-1-yl)propanamide]	167 to 169 °C	10.8 ± 0.9 µM	33.28%	46.83%	75.72%	90.54%	0.084 ± 0.005 µM
CNC(=O)c1cc(Oc2ccc(NC(=O)Nc3ccc(Cl)c(C(F)(F)F)c3)cc2)ccn1 [Sorafenib, reference compound]		7.47 ± 0.3 µM					
O=C(CCNCc1ccccc1)Nc1ccc(-c2nc3cc(Cl)ccc3o2)cc1 [Compound 23, 3-(benzylamino)-N-(4-(5-chlorobenzoxazol-2-yl)phenyl)propanamide]	109 to 111 °C	62.1 ± 3.4 µM					
CN1CCN(CC(=O)Nc2ccc(-c3nc4cc(Cl)ccc4o3)cc2)CC1 [Compound 8, N-(4-(5-chlorobenzoxazol-2-yl)phenyl)-2-(4-methylpiperazin-1-yl)acetamide]	179 to 181 °C	30.9 ± 2.3 µM					
O=C(CNCc1ccccc1)Nc1ccc(-c2nc3cc(Cl)ccc3o2)cc1 [Compound 20, 2-(benzylamino)-N-(4-(5-chlorobenzoxazol-2-yl)phenyl)acetamide]	158 to 160 °C	47.6 ± 2.8 µM					
O=C(CN1CCCCC1)Nc1ccc(-c2nc3cc(Cl)ccc3o2)cc1 [Compound 6, N-(4-(5-chlorobenzoxazol-2-yl)phenyl)-2-(piperidin-1-yl)acetamide]	180 to 182 °C	42.5 ± 2.8 µM					
O=C(CCN1CCN(c2ccccc2)CC1)Nc1ccc(-c2nc3cc(Cl)ccc3o2)cc1 [Compound 18, N-(4-(5-chlorobenzoxazol-2-yl)phenyl)-3-(4-phenylpiperazin-1-yl)propanamide]	239 to 241 °C	19.2 ± 1.6 µM					
O=C(CCN1CCN(Cc2ccccc2)CC1)Nc1ccc(-c2nc3cc(Cl)ccc3o2)cc1 [Compound 15, 3-(4-benzylpiperazin-1-yl)-N-(4-(5-chlorobenzoxazol-2-yl)phenyl)propanamide]	182 to 184 °C	35.3 ± 2.5 µM					
[N-]=[N+]=Nc1ccc(-c2nc3cc(Cl)ccc3o2)cc1 [Compound 28, 2-(4-azidophenyl)-5-chlorobenzoxazole]	167 to 169 °C	> 100 µM					
O=C(CCNCCc1ccccc1)Nc1ccc(-c2nc3cc(Cl)ccc3o2)cc1 [Compound 24, N-(4-(5-chlorobenzoxazol-2-yl)phenyl)-3-(phenethylamino)propanamide]	73 to 75 °C	26.5 ± 2.1 µM					
CCOC(=O)c1nnn(-c2ccc(-c3nc4cc(Cl)ccc4o3)cc2)c1C [Compound 29, Ethyl 1-(4-(5-chlorobenzoxazol-2-yl)phenyl)-5-methyl-1H-1,2,3-triazole-4-carboxylate]	251 to 253 °C	76 ± 3.8 µM					
O=C(CCCl)Nc1ccc(-c2nc3cc(Cl)ccc3o2)cc1 [Compound 5, 3-chloro-N-(4-(5-chlorobenzoxazol-2-yl)phenyl)propanamide]	210 to 212 °C	55.7 ± 3.2 µM					
O=C(CN1CCN(Cc2ccccc2)CC1)Nc1ccc(-c2nc3cc(Cl)ccc3o2)cc1 [Compound 10, 2-(4-benzylpiperazin-1-yl)-N-(4-(5-chlorobenzoxazol-2-yl)phenyl)acetamide]	195 to 197 °C	71.7 ± 3.5 µM					
CCN(CC)CC(=O)Nc1ccc(-c2nc3cc(Cl)ccc3o2)cc1 [Compound 26, N-(4-(5-chlorobenzoxazol-2-yl)phenyl)-2-(diethylamino)acetamide]	133 to 135 °C	18.6 ± 1.3 µM	21.36%	38.75%	55.9%	86.92%	0.292 ± 0.016 µM
COc1ccccc1N1CCN(CC(=O)Nc2ccc(-c3nc4cc(Cl)ccc4o3)cc2)CC1 [Compound 17, N-(4-(5-chlorobenzoxazol-2-yl)phenyl)-2-(4-(2-methoxyphenyl)piperazin-1-yl)acetamide]	218 to 220 °C	48 ± 2.9 µM					
O=C(CCl)Nc1ccc(-c2nc3cc(Cl)ccc3o2)cc1 [Compound 4, 2-chloro-N-(4-(5-chlorobenzoxazol-2-yl)phenyl)acetamide]	218 to 220 °C	43.2 ± 2.7 µM					
